Measured values from patent publication US4185119A, “Antiallergic methods” (priority 1977, dated 1980).
Counter-ions that a name gives are not always drawn.

Key:
Format in all cases: in vivo
[1] = test system: P.C.A. reaction in S.D. strain rats; test: Inhibition test of P.C.A. (Passive Cutaneous Anaphylaxis) reaction in S.D. strain rats, rat reaginic antiserum against egg albumin
Procedure: (§1) (a) Rat reaginic antiserum against egg albumin
(§2) A solution of egg albumin (2 mg) in B. pertussis-diphtheria-tetanus mixed vaccine (1 ml.) (made by Takeda Chemical Industries Ltd.) was mixed with an equal volume of incomplete adjuvant (made by Difco Laboratories) to give an emulsion. The emulsion was given subcutaneously in a single dose of 1 ml. divided equally (0.25 ml.) to the four foot pads of male S.D. (Sprague-Dawley) strain rats aged 8 weeks, each weighing about 300 g.
(§3) Five days after the administration, a solution of egg albumin (0.5 mg.) in B. pertussis-diphtheria-tetanus mixed vaccine (0.5 ml.) was further given intramuscularly in a single dose of 0.5 ml. divided equally (0.25 ml.) to 2 places of thigh of the same rats.
(§4) Three days after the second administration, blood samples were collected from femoral artery of the rats and allowed to stand at ambient temperature for 5 hours. The separated supernatant was centrifuged at 4° C. (10,000 r.p.m.× 1 hour). The antisera thus obtained were stored at -80° C. prior to use.
(§5) (2) Inhibition test of P.C.A. (Passive Cutaneous Anaphylaxis) reaction
(§6) (a) Inhibitory effect on P.C.A. reaction in S.D. strain rats
(§7) Fifteen male S.D. strain rats aged 8 weeks, each weighing about 270 g were divided equally into 3 groups.
(§8) A rat reaginic antiserum (0.07 ml.) as prepared by the above (1)-(a) was given intracutaneously to the depilated back of each rat of Group I and Group II. On the other hand, a rat normal serum (0.07 ml.) was given intracutaneously to the depilated back of each rat of Group III, respectively.
(§9) Thirty hours after the administration, a normal saline (0.5 ml.) containing egg albumin (7.5 mg.) and Evans blue (2.5 mg.) was intravenously given to each rat of Groups I-III in order to bring about P.C.A., respectively.
(§10) Beforehand, 3 hours, 1 hour and […] before the intravenous administration to bring about P.C.A., a normal saline (1 ml.) containing the prescribed amount of N-methyllaurotetanine hydrochloride and carboxymethylcellulose (0.5 %) was given orally, intraperitoneally or intravenously to each rat of Group I and a normal saline (1 ml.) containing only carboxymethylcellulose (0.5% was also given orally, intraperitoneally or intravenously to each rat of Group II.
(§11) Thirty minutes after challenge with antigen, the animals were sacrificed and then skinned. To each of the sensitized spots punched, was added a mixture (7 ml.) of acetone and 2% aqueous sodium alkylbenzenesulfonate solution (4:1) and then the mixture was homogenized. The homogenate was shaken at ambient temperature for 2 hours and filtered. Optical density at 620 nm of the filtrate was determined and from the value of the optical density, inhibitory effect of P.C.A. reaction was calculated by using the following equation. [formula] A: Optical Density Value of Group II B: Optical Density Value of Group I
(§12) C: Optical Density Value of Group III

[2] = test system: P.C.A. reaction in Donryu strain rats; test: Inhibition of P.C.A. reaction in Donryu strain rats, rat reaginic antiserum against egg albumin; conditions: Donryu rat (Table 2-I)
Procedure: as §1, §2, §3, §4
(§13) (b) Inhibitory effect on P.C.A. reaction in Donryu strain rat
(§14) The following tests were carried out in substantially the same manner as described in the above item (2)-(a).
(§15) (i) Test compound: N:methyllaurotetanine hydrochloride
(§16) Test animal: Male Donryu strain rats aged 8 weeks, weighing about 130 g.
(§17) Challenge: A normal saline (0.3 ml.) containing egg albumin (4.5 mg.) and Evans blue (1.5 mg.).
(§18) (ii) Test commpound: glaucine or boldine
(§19) Test animal: Male Donryu strain rats aged 8 weeks, weighing 140-150 g.
(§20) Challenge: the same as the above item (b)-(i).

[3] = test system: P.C.A. reaction in S.D. strain rats; test: Inhibition test of P.C.A. reaction in S.D. strain rats, rat hyperimmune antiserum against egg albumin
Procedure: (§21) (b) Rat hyperimmune antiserum against egg albumin
(§22) A solution of egg albumin (20 mg.) in normal saline (1 ml.) was mixed with complete adjuvant (1 ml.) (made by Difco Laboratories) to given an emulsion. The emulsion was subcutaneously given in a single dose of 1 ml. divided equally (0.25 ml.) to the four pads of male S.D. strain rats aged 6 weeks, each weighing about 200 g. (The first immunization).
(§23) One week after the administration, an emulsion which was prepared by mixing a solution of egg albumin (10 mg.) in normal saline (1 ml.) with complete adjuvant (1 ml.) was further given subcutaneously (at 3 places) and intramuscularly (at 1 place) in a single dose of 1 ml. divided equally (0.25 ml.) to thigh of the same rats. (The second immunization).
(§24) Three weeks after the second administration, a solution of egg albumin (1 mg.) in normal saline (1 ml.) was further given intracutaneously in a single dose of 0.3 ml. divided equally (0.1 ml.) to 3 places of the same rats. (The third immunization).
(§25) One week after the third administration, blood samples were collected from rats and treated in substantially the same manner as described in the above item (a). The antisera thus obtained were stored at -80° C. prior to use.
as §5, §6, §7, §8, §9, §10, §11, §12
(§26) Further, an inhibition test on P.C.A. reaction using the rat hyperimmuneantiserum against egg albumin was carried out in substantially the same manner as described in the above, excepting that the intravenous administration to bring about P.C.A. was carried out at 5.5 hours after the administration of the serum and antiserum. And inhibitory effect on the P.C.A. reaction was also calculated in substantially the same manner as described in the above.

[4] = test system: P.C.A. reaction in Donryu strain rats; test: Inhibition of P.C.A. reaction in Donryu strain rats, rat hyperimmune antiserum against egg albumin; conditions: Donryu rat (Table 2-I)
Procedure: as §21, §22, §23, §24, §25, §26, §13, §14, §15, §16, §17, §18, §19, §20

With `COc1cc2c(cc1O)CC1c3c(cc(OC)c(OC)c3-2)CCN1C` (stereo not shown) [N-Methyllaurotetanine hydrochloride] the “Inhibitory effect on P.C.A. reaction” value ([1]; intraperitoneal, 4 mg/kg) was 6%, the “Inhibitory effect on P.C.A. reaction” value ([1]; intraperitoneal, 13 mg/kg) was 80% and the “Inhibitory effect on P.C.A. reaction” value ([1]; intraperitoneal, 40 mg/kg) was 85%. The ED50 ([1]; intravenous) was 2.5 mg/kg, the “Inhibitory effect on P.C.A. reaction” value ([1]; intravenous, 1 mg/kg) was 24% and the “Inhibitory effect on P.C.A. reaction” value ([1]; intravenous, 3 mg/kg) was 57%. For the same compound, the “Inhibitory effect on P.C.A. reaction” value ([1]; intravenous, 9 mg/kg) was 85%, the ED50 ([1]; ip, intraperitoneal) was 4.8 mg/kg and the ED50 ([1]; oral) was 100 mg/kg. The “Inhibitory effect on P.C.A. reaction” value ([1]; oral, 20 mg/kg) was 16%, the “Inhibitory effect on P.C.A. reaction” value ([1]; oral, 66 mg/kg) was 35% and the “Inhibitory effect on P.C.A. reaction” value ([1]; oral, 200 mg/kg) was 85%. For the same compound, the “Inhibitory effect on P.C.A. reaction” value ([2]; intraperitoneal, 4 mg/kg) was 30%, the “Inhibitory effect on P.C.A. reaction” value ([2]; intraperitoneal, 13 mg/kg) was 60% and the “Inhibitory effect on P.C.A. reaction” value ([2]; intraperitoneal, 40 mg/kg) was 70%. For the same compound, the “Inhibitory effect on P.C.A. reaction” value ([2]; intravenous, 6.7 mg/kg) was 70%, the “Inhibitory effect on P.C.A. reaction” value ([2]; intravenous, 20 mg/kg) was 100% and the “Inhibitory effect on P.C.A. reaction” value ([2]; oral, 20 mg/kg) was 40%. For the same compound, the “Inhibitory effect on P.C.A. reaction” value ([2]; oral, 66 mg/kg) was 70%, the “Inhibitory effect on P.C.A. reaction” value ([2]; oral, 200 mg/kg) was 90% and the “Inhibitory effect on P.C.A. reaction” value ([3]; intraperitoneal, 4 mg/kg) was 20%. For the same compound, the “Inhibitory effect on P.C.A. reaction” value ([3]; intraperitoneal, 13 mg/kg) was 60%, the “Inhibitory effect on P.C.A. reaction” value ([3]; intraperitoneal, 40 mg/kg) was 72% and the ED50 ([3]; intravenous) was 4 mg/kg. The “Inhibitory effect on P.C.A. reaction” value ([3]; intravenous, 1 mg/kg) was 23%, the “Inhibitory effect on P.C.A. reaction” value ([3]; intravenous, 3 mg/kg) was 46% and the “Inhibitory effect on P.C.A. reaction” value ([3]; intravenous, 9 mg/kg) was 65%. The ED50 ([3]; ip, intraperitoneal) was 11 mg/kg, the ED50 ([3]; oral) was 110 mg/kg and the “Inhibitory effect on P.C.A. reaction” value ([3]; oral, 20 mg/kg) was 42%. The “Inhibitory effect on P.C.A. reaction” value ([3]; oral, 66 mg/kg) was 33%, the “Inhibitory effect on P.C.A. reaction” value ([3]; oral, 200 mg/kg) was 81% and the “Inhibitory effect on P.C.A. reaction” value ([4]; intraperitoneal, 4 mg/kg) was 10%. For the same compound, the “Inhibitory effect on P.C.A. reaction” value ([4]; intraperitoneal, 13 mg/kg) was 55%, the “Inhibitory effect on P.C.A. reaction” value ([4]; intraperitoneal, 40 mg/kg) was 50% and the “Inhibitory effect on P.C.A. reaction” value ([4]; intravenous, 6.7 mg/kg) was 50%. For the same compound, the “Inhibitory effect on P.C.A. reaction” value ([4]; intravenous, 20 mg/kg) was 80%, the “Inhibitory effect on P.C.A. reaction” value ([4]; oral, 20 mg/kg) was 30% and the “Inhibitory effect on P.C.A. reaction” value ([4]; oral, 66 mg/kg) was 40%. For the same compound, the “Inhibitory effect on P.C.A. reaction” value ([4]; oral, 200 mg/kg) was 65%.
